{"source": "PubChem BioAssay AID2060603", "about": "(Molecular Pharmacology Branch, DTP, NCI, 2025);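 also: spheroids exposed to agents for seven days before readout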", "tested_on": "422866-222-R5-J1-PDC spheroid viability", "test": "Anticancer human tumor 422866-222-R5-J1-PDC patient-derived pancreatic adenocarcinoma cell line growth inhibition [CLK]", "conditions": "spheroids with HUVEC and MSC; for IC50: curve of first compound; for viability, T/C: stronger effect = lower value", "from_the_text": "A high-throughput screen of multi-cell type tumor spheroids was designed to identify active combinations of […] and targeted small molecules. Complex spheroids include a stromal component modeled by human endothelial cells (HUVEC) and fibroblasts modeled by human mesenchymal stem cells (MSCs). The concentration ranges selected for each drug and investigational agent were based upon clinically achievable concentrations if the clinical Cmax of the agent was known.\nCompounds. The drugs and investigational agents: cirtuvivint (SM08502; NSC835563), CC-671 (NSC850746), vemurafenib (NSC761431), tapotoclax (NSC804041), sotorasib (NSC818433), adagrasib (NSC831453), MRTX-1133 (NSC836407), BAY2416964 (NSC825713), copanlisib (NSC816437), inavolisib (NSC800729), abemaciclib (NSC768073), osimertinib (NSC779217), entinostat (NSC756642), eltanexor (KPT-8602, NSC794443), venetoclax (NSC766270), ceralasertib (NSC777638), bortezomib (NSC756655), olaparib (NSC753686), talazoparib (NSC767125), alisertib (NSC759677), peposertib (NSC802822), gemcitabine (NSC613327), 5-fluorouracil (NSC19893), SN-38 (NSC673596), oxaliplatin (NSC266046), paclitaxel (NSC125973), and doxorubicin (NSC123127), were obtained from the National Cancer Institute (NCI) Developmental Therapeutics Program Chemical Repository. The FDA-approved anticancer drug set is available from the Developmental Therapeutics Program at https://dtp.cancer.gov/organization/dscb/obtaining/available plates.htm. […] The stock solutions were prepared in dimethyl sulfoxide (DMSO, Sigma-Aldrich, St. Louis, MO, cat. D2650), except for the platinum complexes which were prepared in saline (Quality Biological, Gaithersburg, MD, cat. 114-055-101), at 800-fold the tested concentration and stored at -70 degrees C prior to their use. All drugs and investigational agents were tested over a range starting from a high concentration at or near the clinical Cmax and decreasing in half-log increments. If the clinical Cmax for an agent had not been determined, the highest concentration tested was 10 microM.\nCell Culture. All cells were maintained in an incubator at 37 degrees C and 5% CO2 with 95% humidity. The PDC lines were cultured according to standard operating procedures established by the NCI PDMR. Briefly, all PDCs were thawed and cultured in Matrigel-coated flasks prepared with a working solution of 1X Ham's F-12 nutrient mix, without supplementation (Invitrogen, Waltham, MA, cat. 11765054), 100 U/mL penicillin-streptomycin (Invitrogen, cat. 15140122), and 2.5% Matrigel (Corning Inc., Corning, NY, cat. 354248) for the first three passages. The 947758-054-R-J2-PDC line was cultured in 6B/Colon 1A media, which includes advanced DMEM/F-12 (Thermo Fisher Scientific, cat. 12634028), 10 mM HEPES (Thermo Fisher Scientific, cat. 15630080), 1X GlutaMAX supplement (Thermo Fisher Scientific, cat. 35050061), 0.1 mg/mL primocin (InvivoGen, cat. ant-pm-2), 10% defined fetal bovine serum, heat inactivated (HyClone Laboratories Inc., cat. SH30070.03HI), 1.25 mM N-Acetyl-L-cysteine (Sigma-Aldrich, cat. A9165), 10 mM nicotinamide (Sigma-Aldrich, cat. N0636), 1X B-27 supplement (Thermo Fisher Scientific, cat. 17504044), 1X N-2 supplement (Thermo Fisher Scientific, cat. 17502048), and 10 microM Y-27632 dihydrochloride (Tocris Bioscience, cat. 1254). The 876862-298-R-J1-PDC was cultured in 6E media, which includes all 6B/Colon 1A media components plus 50% L-WRN conditioned media (ATCC, cat. CRL-3276), 50 ng/mL recombinant human EGF recombinant protein (hEGF; Thermo Fisher Scientific, cat. PHG0311), 10 ng/mL recombinant human fibroblast growth factor 10 (hGFG-10; PeproTech, cat. 100-26), 1 ng/mL recombinant human fibroblast growth factor 2 (hFGF-2; PeproTech, cat. 100-18B), and 1 µM prostaglandin E2 (PGE2; Tocris, cat. 2296). The 227483-062-R1-J1-PDC line was cultured in Panc media, containing all 6E components except hFGF-2, with the addition of 500 nM SB-431542 (Selleckchem, cat. S1067) and 10 nM gastrin (Tocris, cat. 3006). […]", "data": [{"smiles": "C=CC(=O)Nc1cc(Nc2nccc(-c3cn(C)c4ccccc34)n2)c(OC)cc1N(C)CCN(C)C", "note": "+ CN1CCN(c2cc(C(=O)Nc3cc4cc(-c5cnn(C)c5)ccc4cn3)ccn2)CC1", "values": [{"measurement": "IC50", "setting": "second compound 0.0316 µM", "value": "> 300", "unit": "nM"}, {"measurement": "IC50", "setting": "second compound 0.1 µM", "value": "> 300", "unit": "nM"}, {"measurement": "IC50", "setting": "second compound 0.316 µM", "value": "> 300", "unit": "nM"}, {"measurement": "IC50", "setting": "second compound 1 µM", "value": "< 0.949", "unit": "nM"}, {"measurement": "IC50", "setting": "second compound 3.16 µM", "value": "< 0.949", "unit": "nM"}, {"measurement": "IC50", "setting": "second compound 10 µM", "value": "< 0.949", "unit": "nM"}, {"measurement": "viability, T/C", "setting": "second compound 0.0316 µM, first compound 0.000949 µM", "value": 122, "unit": "%"}, {"measurement": "viability, T/C", "setting": "second compound 0.0316 µM, first compound 0.003 µM", "value": 103, "unit": "%"}, {"measurement": "viability, T/C", "setting": "second compound 0.0316 µM, first compound 0.00949 µM", "value": 114, "unit": "%"}, {"measurement": "viability, T/C", "setting": "second compound 0.0316 µM, first compound 0.03 µM", "value": 96, "unit": "%"}, {"measurement": "viability, T/C", "setting": "second compound 0.0316 µM, first compound 0.0949 µM", "value": 93.9, "unit": "%"}, {"measurement": "viability, T/C", "setting": "second compound 0.0316 µM, first compound 0.3 µM", "value": 77.8, "unit": "%"}, {"measurement": "viability, T/C", "setting": "second compound 0.1 µM, first compound 0.000949 µM", "value": 133, "unit": "%"}, {"measurement": "viability, T/C", "setting": "second compound 0.1 µM, first compound 0.003 µM", "value": 129, "unit": "%"}, {"measurement": "viability, T/C", "setting": "second compound 0.1 µM, first compound 0.00949 µM", "value": 107, "unit": "%"}, {"measurement": "viability, T/C", "setting": "second compound 0.1 µM, first compound 0.03 µM", "value": 105, "unit": "%"}, {"measurement": "viability, T/C", "setting": "second compound 0.1 µM, first compound 0.0949 µM", "value": 94.2, "unit": "%"}, {"measurement": "viability, T/C", "setting": "second compound 0.1 µM, first compound 0.3 µM", "value": 93.2, "unit": "%"}, {"measurement": "viability, T/C", "setting": "second compound 0.316 µM, first compound 0.000949 µM", "value": 94, "unit": "%"}, {"measurement": "viability, T/C", "setting": "second compound 0.316 µM, first compound 0.003 µM", "value": 87.2, "unit": "%"}, {"measurement": "viability, T/C", "setting": "second compound 0.316 µM, first compound 0.00949 µM", "value": 93.7, "unit": "%"}, {"measurement": "viability, T/C", "setting": "second compound 0.316 µM, first compound 0.03 µM", "value": 83.9, "unit": "%"}, {"measurement": "viability, T/C", "setting": "second compound 0.316 µM, first compound 0.0949 µM", "value": 87.6, "unit": "%"}, {"measurement": "viability, T/C", "setting": "second compound 0.316 µM, first compound 0.3 µM", "value": 79, "unit": "%"}, {"measurement": "viability, T/C", "setting": "second compound 1 µM, first compound 0.000949 µM", "value": 29.3, "unit": "%"}, {"measurement": "viability, T/C", "setting": "second compound 1 µM, first compound 0.003 µM", "value": 36.8, "unit": "%"}, {"measurement": "viability, T/C", "setting": "second compound 1 µM, first compound 0.00949 µM", "value": 35.3, "unit": "%"}, {"measurement": "viability, T/C", "setting": "second compound 1 µM, first compound 0.03 µM", "value": 29.3, "unit": "%"}, {"measurement": "viability, T/C", "setting": "second compound 1 µM, first compound 0.0949 µM", "value": 30.8, "unit": "%"}, {"measurement": "viability, T/C", "setting": "second compound 1 µM, first compound 0.3 µM", "value": 23.7, "unit": "%"}, {"measurement": "viability, T/C", "setting": "second compound 3.16 µM, first compound 0.000949 µM", "value": 9.51, "unit": "%"}, {"measurement": "viability, T/C", "setting": "second compound 3.16 µM, first compound 0.003 µM", "value": 9.88, "unit": "%"}, {"measurement": "viability, T/C", "setting": "second compound 3.16 µM, first compound 0.00949 µM", "value": 10.5, "unit": "%"}, {"measurement": "viability, T/C", "setting": "second compound 3.16 µM, first compound 0.03 µM", "value": 10.5, "unit": "%"}, {"measurement": "viability, T/C", "setting": "second compound 3.16 µM, first compound 0.0949 µM", "value": 9.87, "unit": "%"}, {"measurement": "viability, T/C", "setting": "second compound 3.16 µM, first compound 0.3 µM", "value": 9.45, "unit": "%"}, {"measurement": "viability, T/C", "setting": "second compound 10 µM, first compound 0.000949 µM", "value": 2.62, "unit": "%"}, {"measurement": "viability, T/C", "setting": "second compound 10 µM, first compound 0.003 µM", "value": 2.53, "unit": "%"}, {"measurement": "viability, T/C", "setting": "second compound 10 µM, first compound 0.00949 µM", "value": 2.32, "unit": "%"}, {"measurement": "viability, T/C", "setting": "second compound 10 µM, first compound 0.03 µM", "value": 1.8, "unit": "%"}, {"measurement": "viability, T/C", "setting": "second compound 10 µM, first compound 0.0949 µM", "value": 1.99, "unit": "%"}, {"measurement": "viability, T/C", "setting": "second compound 10 µM, first compound 0.3 µM", "value": 1.66, "unit": "%"}]}]}
